These results are taken from patent publication US20160200698A1, “VORTIOXETINE SALT AND CRYSTAL THEREOF, THEIR PREPARATION METHOD, PHARMACEUTICAL COMPOSITIONS AND USAGE” (HANGZHOU PUSHAI PHARMACEUTICAL TECHNOLOGY CO., LTD, priority 2013, published 2016).

Counter-ions that a name gives are not always drawn.

What all share (assay type): physicochemical
Data set [1] can be described thus: Inventors' studies of the known crystalline forms of vortioxetine hydrobromide of WO2007/144005A1. Particulars: for Stability under high-temperature conditions: hydrobromide. The text has this: In studies, the inventors of the present invention found out that the multiple crystalline forms of vortioxetine hydrobromide disclosed in WO2007/144005A1 have the following disadvantages: […]

A short description of data set [2]: Stability competition test (competitive slurry, XRPD analysis). Particulars: for Stability Competition Test: crystalline form after competitive slurry (XRPD): ethanol or water, equal quantity of both forms slurried 7 days; for Stability competition test: crystalline form after slurry (summary statement): slurried in water or ethanol, temperature not stated. As for the experimental part: Stability competition test: An equal quantity (250 mg) of the crystalline vortioxetine hemihydrobromide form of the present invention prepared in example 4 and the β Form of vortioxetine hydrobromide prepared in preparation example 2 were respectively added to 3 mL of ethanol or water to produce suspensions. No solvate was formed in ethanol or water. The suspensions were slurried for 7 days at room temperature or at 60° C., and then XRPD characterization analyses were performed.

The nature of data set [3]: Dissolution comparison of sustained-release tablets made by the method of example 141. Particulars: water, 37° C., paddle 50 r/min. The protocol: The crystalline form of vortioxetine hemihydrobromide of the present invention and the β Form of vortioxetine hydrobromide prepared in preparation example 2 were tabletted by the method of example 141 and then subjected to dissolution comparison. Water was used as the dissolution medium. Parameter setting of the dissolution tester: The temperature was 37° C. The rotate speed of the stirring paddle was 50 r/min Take 3 ml of the dissolution medium out at 0.5, 1, 2, 6 and 12 hours respectively. Each time after sampling, 3 mL of water was added back to the dissolution medium to supplement the volume. The concentration of the dissolution medium at each time point was determined by HPLC.

Data set [4] can be described thus: Hygroscopicity comparison by DVS isothermal sorption curve. As to conditions: 20%-80% RH range. The protocol: Dynamic vapor sorption (DVS) data were collected using TA Instruments Q5000 TGA. The instrument control software was Thermal Advantage, and the analytical software was Universal Analysis. Usually, 1-10 mg of the sample was placed in a platinum pan and the weight change of the sample during experiments was recorded. The relative humidity was usually programmed to change from 20% to 80% and then back to 20%, and an isothermal sorption curve could be generated. Depending on specific situations, different sorption and desorption procedures might be used.
Hygroscopicity comparison: DVS isothermal sorption curves were used, and weight changes within the 20%-80% RH range were measured.

Data set [5] can be described thus: Dissolution of tablets made by the method of example 105 (paddle method, water). Particulars: 900 mL water, 37° C., paddle 50 r/min. As for the experimental part:
The crystalline form of vortioxetine hemihydrobromide of the present invention, the β Form of vortioxetine hydrobromide prepared in preparation example 2 and the β Form of vortioxetine hydrobromide containing 20% of the crystalline form of vortioxetine hemihydrobromide of the present invention were tabletted by the method in example 105 and then subjected to phase stability comparison. Dissolution was determined by reference to the dissolution conditions of Benorilate Tablets described in 2010 Chinese Pharmacopoeia. The paddle method was used with the paddle rotation speed at 50 r/min 900 mL of water was the dissolution medium. The temperature was 37° C. Take 3 mL of the dissolution medium for sampling at 2, 10, 20, 40 and 60 min respectively. Each time after sampling, 3 mL of water was added back to dissolution medium to supplement the volume. The concentration of the dissolution medium at each time point was measured by HPLC, and the dissolution profile was plotted.

A short description of data set [6]: Storage of the crystalline form in desiccators at controlled humidity. Particulars: desiccators at 10% RH-90% RH, room temperature, 4 months. The text has this: It is more temperature and humidity robust and is less likely to have content uniformity and stability issues during pharmaceutical production and storage, thus reduces the risk of inefficacy and safety issue caused thereby and improves dosing accuracy.

Where [7] appears, read: listed as the known β Form of vortioxetine hydrobromide, hydrobromide.
Setting [8] is: sampling time 0.5 hours, hydrobromide.
The mark [9] stands for this setting: sampling time 1 hour, hydrobromide.
Setting [10] is: sampling time 2 hours, hydrobromide.
Setting [11] is: sampling time 6 hours, hydrobromide.
Setting [12] is: sampling time 12 hours, hydrobromide.
Setting [13] is: sampling time 2 min, hydrobromide.
Where [14] appears, read: sampling time 10 min, hydrobromide.
The mark [15] stands for this setting: sampling time 20 min, hydrobromide.
[16] abbreviates: sampling time 40 min, hydrobromide.
Where [17] appears, read: sampling time 0.5 hours, hemihydrobromide.
[18] abbreviates: sampling time 1 hour, hemihydrobromide.
[19] abbreviates: sampling time 2 hours, hemihydrobromide.
The mark [20] stands for this setting: sampling time 6 hours, hemihydrobromide.
[21] abbreviates: sampling time 12 hours, hemihydrobromide.
Where [22] appears, read: sampling time 2 min, hemihydrobromide.
The mark [23] stands for this setting: sampling time 10 min, hemihydrobromide.
[24] abbreviates: sampling time 20 min, hemihydrobromide.
Where [25] appears, read: sampling time 40 min, hemihydrobromide.

For the compound `Cc1ccc(Sc2ccccc2N2CCNCC2)c(C)c1` [ethyl acetate solvate of vortioxetine hydrobromide], the “Stability under high-humidity conditions” value in data set [1] (high-humidity conditions) is reported as “transformed to hydrate”. In addition, the “Stability under high-temperature conditions” value in data set [1] is “lost ethyl acetate”.

In the case of `Cc1ccc(Sc2ccccc2N2CCNCC2)c(C)c1` [hydrate of vortioxetine hydrobromide, vortioxetine hydrobromide], the “Stability under high-temperature conditions” value in data set [1] was “lost water”.

Take `Cc1ccc(Sc2ccccc2N2CCNCC2)c(C)c1` [the β Form of vortioxetine hydrobromide, 1-[2-(2,4-dimethylphenylsulfanyl)phenyl]piperazine hydrobromide]: the “Stability Competition Test: crystalline form after competitive slurry (XRPD)” value in data set [2] (60° C., listed as the known β Form of vortioxetine hydrobromide, hydrobromide) was “completely transformed into the vortioxetine hemihydrobromide crystalline form of the present invention”; in data set [2] (room temperature, listed as the known β Form of vortioxetine hydrobromide, hydrobromide), “completely transformed into the vortioxetine hemihydrobromide crystalline form of the present invention”. In addition, the “Stability competition test: crystalline form after slurry (summary statement)” value in data set [2] (hydrobromide) is “failed to maintain its original crystalline form and transformed to the vortioxetine hemihydrobromide crystalline form of the present invention”; in data set [2] (setting [7]), “completely transformed to the crystalline vortioxetine hemihydrobromide of the present invention”; in data set [2] (listed as β Form of vortioxetine hydrobromide, hydrobromide) it was “failed to maintain its original crystalline form”. For the same compound, the Concentration in data set [3] (setting [8]) amounted to 16370 ng/mL; in data set [3] (setting [9]) it was 29710 ng/mL; in data set [3] (setting [10]) it was 30810 ng/mL; in data set [3] (setting [11]), 31560 ng/mL; in data set [3] (setting [12]) it was 33420 ng/mL; in data set [5] (setting [13]) it was 13120 ng/mL. The Concentration in data set [5] (setting [14]) is 28050 ng/mL; in data set [5] (setting [15]) it was 30020 ng/mL; in data set [5] (setting [16]) it was 31660 ng/mL; in data set [5] (sampling time 60 min, hydrobromide) it was 33420 ng/mL. Moreover, the Cumulative dissolution in data set [3] (setting [8]) is 50.0%; in data set [3] (setting [9]), 90.9%; in data set [3] (setting [10]), 94.2%; in data set [3] (setting [11]), 96.5%; in data set [3] (setting [12]) it was 100.0%; in data set [5] (setting [13]) it was 40.1%. Further, the Cumulative dissolution stood at 85.8% in data set [5] (setting [14]), 91.8% in data set [5] (setting [15]) and 96.8% in data set [5] (setting [16]). Also, the “Hygroscopicity Comparison (weight change)” value in data set [4] (setting [7]) amounted to 0.60%.

On to `Cc1ccc(Sc2ccccc2N2CCNCC2)c(C)c1` [vortioxetine hemihydrobromide], for which the “Stability Competition Test: crystalline form after competitive slurry (XRPD)” value in data set [2] (60° C., listed as the vortioxetine hemihydrobromide crystalline form of the present invention, hemihydrobromide) is on record as “present invention kept unchanged””; in data set [2] (room temperature, listed as the vortioxetine hemihydrobromide crystalline form of the present invention, hemihydrobromide), “present invention kept unchanged””. Also, in data set [2] (hemihydrobromide), the “Stability competition test: crystalline form after slurry (summary statement)” value is listed as “keeping its crystalline form unchanged”. For the same compound, the Concentration in data set [3] (setting [17]) was 2250 ng/mL; in data set [3] (setting [18]), 3980 ng/mL; in data set [3] (setting [19]), 7650 ng/mL; in data set [3] (setting [20]), 12640 ng/mL; in data set [3] (setting [21]) it was 26330 ng/mL; in data set [5] (setting [22]), 2270 ng/mL. The Concentration in data set [5] (setting [23]) was 4320 ng/mL; in data set [5] (setting [24]), 7720 ng/mL; in data set [5] (setting [25]), 11330 ng/mL; in data set [5] (sampling time 60 min, hemihydrobromide), 27860 ng/mL. The Cumulative dissolution is recorded as 8.1% in data set [3] (setting [17]); 14.3% in data set [3] (setting [18]); 27.4% in data set [3] (setting [19]); 58.5% in data set [3] (setting [20]); 94.5% in data set [3] (setting [21]); 8.2% in data set [5] (setting [22]). Moreover, the Cumulative dissolution was 15.5% in data set [5] (setting [23]), 27.7% in data set [5] (setting [24]), 52.4% in data set [5] (setting [25]) and 100.0% in data set [5] (sampling time 60 min). The “Hygroscopicity Comparison (weight change)” value stood at 0.28% in data set [4] (listed as Example 4, hemihydrobromide) and 0.28% in data set [4] (listed as the vortioxetine hemihydrobromide crystalline form of the present invention, hemihydrobromide).

As for `Cc1ccc(Sc2ccccc2N2CCNCC2)c(C)c1` [vortioxetine hydrobromide isopropanol solvate], in data set [6], the “Crystalline form after storage” value is given as “remained unchanged”.

As to `Cc1ccc(Sc2ccccc2N2CCNCC2)c(C)c1` [α Form of vortioxetine hydrobromide, vortioxetine hydrobromide], in data set [1] (room temperature), the “Crystalline form stability at room temperature” value is given as “transformed to the β Form of vortioxetine hydrobromide”.

Take `Cc1ccc(Sc2ccccc2N2CCNCC2)c(C)c1` [γ Form of vortioxetine hydrobromide, vortioxetine hydrobromide]: the “Stability (general finding)” value in data set [1] was “very unstable”. This compound also came in with a Hygroscopicity in data set [1] (low-humidity conditions) of 2.0%.
